Laboratory results: paper PMC4514675, “Novel Apo E-Derived ABCA1 Agonist Peptide (CS-6253) Promotes Reverse Cholesterol Transport and Induces Formation of preβ-1 HDL In Vitro” (PLoS ONE, 2015)
Where “and” joins values, the source holds several entries; their conditions need not be identical. Identical values can stand only once.

Tests used:
[1] = target: T1, ABCA1 (Mus musculus, UniProt P41233); test: ABCA1-mediated cholesterol efflux from cAMP-treated J774 macrophages; assay type: cell-based; settings: mean ± SD
T1 construct: host or cells: J774 mouse macrophages stimulated with Cpt-cAMP
Source text: BHK cells stably transfected with an ABCA1 or ABCG1 expression vector that is mifepristone inducible and cells transfected with the same vector lacking the ABCA1 cDNA insert (mutant or mock-transfected) were generously provided by the late Dr. John F. Oram from the Department of Medicine, University of Washington, and were characterized and cultured as previously described. […] Mouse-derived peritoneal macrophages J774 were purchased from American Tissue Culture Collection (ATCC TIB-67, Cederlane, Burlington, Canada). For induction of ABCA1, BHK cells were incubated for 18–20 h with 10 nM mifepristone. J774 macrophages were stimulated with 0.3 mM Cpt-cAMP 8-(4-Chlorophenylthio)-cyclic adenosine monophosphate (Sigma). […]
All cell culture incubations were performed at 37 °C in a humidified 5% CO2. […] Media were collected, centrifuged at 3.000 g for 5min to remove cell debris, and counted for radioactivity. […] Further, 0.2 ml cells lysates were mixed with scintillation liquid and counted for radioactivity. […] Cholesterol efflux was calculated according to the following formula as the percentage of ^3H-cpm medium/(^3H-cpm medium + ^3H-cpm cells) x 100%. Efflux efficiency (Km) was calculated using the Michaelis-Menten equation (Graph-Pad Prism6 software) respectively (S1, S8 and S9 Figs.)

[2] = system: BHK cells expressing ABCA1; test: Nascent HDL particle formation, 2D-PAGGE; assay type: cell-based, hamster; settings: 0.96 μM
Experimental: Apo A-I and CS-6253-containing particles were separated according to charge (agarose, horizontal axis) and size (polyacrylamide gradient, 3% to 20% gel, vertical axis) as previously described. Apo A-I-containing particles were detected by incubating the membranes with immunopurified polyclonal anti-apo A-I antibody (Biodesign). The nHDL-CS-6253 containing particles were detected with immunopurified polyclonal anti-CS-6253 antibody (Biosynthesis Inc., Lewisville, TX). The anti-CS-6253 is a purified rabbit IgG polyclonal antibody specifically produced by Biosynthesis Inc. It is. Cross reactivity of this antibody was verified by Nondenaturing gradient gel electrophoresis (ND-PAGGE) 5% to 35% [24]. The anti-CS-6253 antibody recognizes only CS-6253 peptide in plasma; neither apo A-I nor apo E were detected by this antibody after separation by gradient gel electrophoresis respectively (Fig 1A, 1B and 1C). High molecular weight protein mixture (GE Healthcare, UK) was run as a standard on each gel.
Next, we investigated the nature of CS-6253-containing particles released in the medium from stimulated ABCA1 cells. Cells were first incubated in 100 mm diameter dishes with either (0.96 μM) apo A-I or CS-6253 in 8 ml of DMEM for 45 min and 6 h at 37°C. These two time points were selected based on our previous work on HDL biogenesis. Lipid free apo A-I or CS-6253 incubated in cell free system media under same conditions were used as control for 2D-PAGGE analysis. Apo A-I or CS-6253-containing particles were separated and analyzed by 2D-PAGGE. […] Both the charge and size of these nascent particles were stable over a 6h incubation period.
Fig 5 Time course ability of CS-6253 to generate nHDL-mimetic like particles. (A and B): nHDL-CS-6253 and nHDL-apo A-I released to the medium at specific time points (45 min and 6 h) from BHK cells expressing ABCA1 were analyzed by 2D-PAGGE. […] Molecular markers are indicated.

T1 sequence (P41233 whole entry): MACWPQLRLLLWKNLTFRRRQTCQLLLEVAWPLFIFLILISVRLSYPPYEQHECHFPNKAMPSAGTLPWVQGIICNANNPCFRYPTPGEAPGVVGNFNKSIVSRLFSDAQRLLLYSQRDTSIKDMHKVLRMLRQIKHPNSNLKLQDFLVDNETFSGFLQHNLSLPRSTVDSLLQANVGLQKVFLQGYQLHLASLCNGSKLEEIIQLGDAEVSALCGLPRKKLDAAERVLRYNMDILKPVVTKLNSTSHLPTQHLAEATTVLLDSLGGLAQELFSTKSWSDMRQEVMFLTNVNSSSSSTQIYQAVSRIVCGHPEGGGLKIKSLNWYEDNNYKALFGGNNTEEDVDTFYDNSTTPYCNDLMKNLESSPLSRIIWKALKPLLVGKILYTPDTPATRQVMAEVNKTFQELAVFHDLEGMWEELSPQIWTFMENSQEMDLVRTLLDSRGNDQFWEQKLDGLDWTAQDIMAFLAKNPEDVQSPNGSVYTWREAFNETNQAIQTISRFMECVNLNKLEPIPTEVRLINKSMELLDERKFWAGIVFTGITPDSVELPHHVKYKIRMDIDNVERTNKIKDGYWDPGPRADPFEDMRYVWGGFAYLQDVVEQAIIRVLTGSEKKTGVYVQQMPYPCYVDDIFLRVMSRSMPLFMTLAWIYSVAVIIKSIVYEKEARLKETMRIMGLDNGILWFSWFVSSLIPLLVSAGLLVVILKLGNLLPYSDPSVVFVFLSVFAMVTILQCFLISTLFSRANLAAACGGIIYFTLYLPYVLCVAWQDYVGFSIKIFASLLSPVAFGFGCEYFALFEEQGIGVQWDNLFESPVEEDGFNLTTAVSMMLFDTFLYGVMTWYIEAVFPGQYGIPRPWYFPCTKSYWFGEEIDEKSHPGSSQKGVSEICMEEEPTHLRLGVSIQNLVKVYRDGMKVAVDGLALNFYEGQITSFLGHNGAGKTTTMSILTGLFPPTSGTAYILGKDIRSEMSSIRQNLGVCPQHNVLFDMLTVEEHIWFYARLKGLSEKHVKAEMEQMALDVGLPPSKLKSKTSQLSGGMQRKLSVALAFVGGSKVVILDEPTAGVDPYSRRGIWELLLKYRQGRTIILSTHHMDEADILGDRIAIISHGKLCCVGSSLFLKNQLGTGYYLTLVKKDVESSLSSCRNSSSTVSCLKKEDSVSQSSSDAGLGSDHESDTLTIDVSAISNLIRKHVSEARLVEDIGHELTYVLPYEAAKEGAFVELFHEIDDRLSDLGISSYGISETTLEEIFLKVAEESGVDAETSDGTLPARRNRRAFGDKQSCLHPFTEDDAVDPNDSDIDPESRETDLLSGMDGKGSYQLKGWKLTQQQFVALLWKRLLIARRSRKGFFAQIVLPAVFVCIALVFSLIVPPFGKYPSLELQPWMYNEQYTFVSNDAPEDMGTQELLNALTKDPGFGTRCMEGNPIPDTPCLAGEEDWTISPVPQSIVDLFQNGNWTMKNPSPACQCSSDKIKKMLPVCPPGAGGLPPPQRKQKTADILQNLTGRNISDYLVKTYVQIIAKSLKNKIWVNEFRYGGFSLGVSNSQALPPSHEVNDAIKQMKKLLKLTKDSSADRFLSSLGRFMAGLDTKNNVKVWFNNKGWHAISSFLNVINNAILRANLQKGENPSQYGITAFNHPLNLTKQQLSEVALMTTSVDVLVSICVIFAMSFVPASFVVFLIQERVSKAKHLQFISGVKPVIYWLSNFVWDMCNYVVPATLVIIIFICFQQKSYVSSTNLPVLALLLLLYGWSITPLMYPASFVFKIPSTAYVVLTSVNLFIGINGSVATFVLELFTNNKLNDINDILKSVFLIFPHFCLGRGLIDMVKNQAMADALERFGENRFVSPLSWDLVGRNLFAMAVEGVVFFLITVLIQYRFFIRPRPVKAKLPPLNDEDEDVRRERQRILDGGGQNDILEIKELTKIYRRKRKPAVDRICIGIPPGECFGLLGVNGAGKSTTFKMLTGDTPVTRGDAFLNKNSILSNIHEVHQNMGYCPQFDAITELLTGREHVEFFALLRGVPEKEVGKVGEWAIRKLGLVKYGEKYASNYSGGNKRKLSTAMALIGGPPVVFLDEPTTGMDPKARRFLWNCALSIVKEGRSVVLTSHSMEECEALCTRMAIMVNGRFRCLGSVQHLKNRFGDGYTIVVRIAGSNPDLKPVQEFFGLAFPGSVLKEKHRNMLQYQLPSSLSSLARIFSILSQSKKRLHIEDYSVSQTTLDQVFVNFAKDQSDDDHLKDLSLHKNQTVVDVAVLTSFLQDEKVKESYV

## apolipoprotein A-I [apo A-I]
[1]; 6 h
  Km, cholesterol efflux: 3.82±1.81 μg/ml and 0.15±0.05 μM
[1]
  Vmax, cholesterol efflux: 6.90±1.06 % efflux/6h
[2]; 45 min or 6 h, BHK-ABCA1
  electrophoretic mobility of released particles: α-electrophoretic mobility
[2]; cell free media
  electrophoretic mobility, incubated without cells: pre-β electrophoretic mobility
[2]; lipid free, cell free media, pre-β mobility
  molecular diameter, incubated without cells: 7.1 nm
